Assay results: ChEMBL document CHEMBL1150175, “Studies on the activities of tannins and related compounds, X. Effects of caffeetannins and related compounds on arachidonate metabolism in human polymorphonuclear leukocytes” (J Nat Prod, 1987)
Active and inactive are the calls of the source. The rule behind the calls is not given here.

Assays:
Homo sapiens [1] = species on record: Homo sapiens; assay: Enhancement of PGE2 formation in A-23187-stimulated human polymorphonuclear leukocytes at 100 uM; assay type: functional
Homo sapiens [2] = species on record: Homo sapiens; assay: Inhibition of A23187-induced LTB4 formation in human polymorphonuclear leukocytes at 100 to 1000 uM; assay type: functional, cell-based
[3] = Inhibition of A23187-induced 5HETE formation in human polymorphonuclear leukocytes; assay type: functional, cell-based
[4] = Inhibition of A23187-induced LTB4 formation in human polymorphonuclear leukocytes; assay type: functional, cell-based
[5] = Formation of PGE2 in A-23187-stimulated human polymorphonuclear leukocytes at 1000 uM relative to control; assay type: functional
[6] = Cytotoxicity against human polymorphonuclear leukocytes assessed as occurrence of cell suspension or lactate dehydrogenase release at 1 to 1000 uM
Homo sapiens [7] = species on record: Homo sapiens; assay: Inhibition of A23187-induced 5HETE formation in human polymorphonuclear leukocytes at 100 to 1000 uM; assay type: functional, cell-based
[8] = Formation of PGE2 in A-23187-stimulated human polymorphonuclear leukocytes at 100 uM relative to control; assay type: functional
[9] = Formation of PGE2 in A-23187-stimulated human polymorphonuclear leukocytes at 10 uM relative to control; assay type: functional
[10] = Inhibition of A23187-induced 12-hydroxy-5,8,10-heptadecatrienoic acid formation in human polymorphonuclear leukocytes; assay type: functional, cell-based
[11] = Formation of 15HETE in A-23187-stimulated human polymorphonuclear leukocytes at 1000 uM relative to control; assay type: functional
[12] = Formation of 15HETE in A-23187-stimulated human polymorphonuclear leukocytes at 100 uM relative to control; assay type: functional
Homo sapiens [13] = species on record: Homo sapiens; assay: Inhibition of A23187-induced 12-hydroxy-5,8,10-heptadecatrienoic acid formation in human polymorphonuclear leukocytes at 1 to 100 uM; assay type: functional, cell-based
Homo sapiens [14] = species on record: Homo sapiens; assay: Inhibition of A23187-induced PGE2 formation in human polymorphonuclear leukocytes at 1 to 100 uM; assay type: functional, cell-based
Homo sapiens [15] = species on record: Homo sapiens; assay: Enhancement of PGE2 formation in A-23187-stimulated human polymorphonuclear leukocytes at 100 to 1000 uM; assay type: functional
Homo sapiens [16] = species on record: Homo sapiens; assay: Inhibition of A23187-induced 12-hydroxy-5,8,10-heptadecatrienoic acid formation in human polymorphonuclear leukocytes at 1000 uM; assay type: functional, cell-based
Homo sapiens [17] = species on record: Homo sapiens; assay: Enhancement of 15HETE formation in A-23187-stimulated human polymorphonuclear leukocytes at 10 to 100 uM; assay type: functional
Homo sapiens [18] = species on record: Homo sapiens; assay: Inhibition of A23187-induced 5HETE formation in human polymorphonuclear leukocytes at 1 to 1000 uM; assay type: functional, cell-based
Homo sapiens [19] = species on record: Homo sapiens; assay: Enhancement of PGE2 formation in A-23187-stimulated human polymorphonuclear leukocytes at 10 to 100 uM; assay type: functional
[20] = Formation of 15HETE in A-23187-stimulated human polymorphonuclear leukocytes at 10 uM relative to control; assay type: functional
[21] = Formation of 12-hydroxy-5,8,10-heptadecatrienoic acid in A-23187-stimulated human polymorphonuclear leukocytes at 1000 uM relative to control; assay type: functional
Homo sapiens [22] = species on record: Homo sapiens; assay: Inhibition of A23187-induced 12-hydroxy-5,8,10-heptadecatrienoic acid formation in human polymorphonuclear leukocytes at 100 to 1000 uM; assay type: functional, cell-based
Homo sapiens [23] = species on record: Homo sapiens; assay: Inhibition of A23187-induced 15HETE formation in human polymorphonuclear leukocytes at 100 to 1000 uM; assay type: functional, cell-based
[24] = Inhibition of A23187-induced 15HETE formation in human polymorphonuclear leukocytes; assay type: functional, cell-based

| IC50 ([3]; Homo sapiens, read-out: IC50) | IC50 ([4]; Homo sapiens, read-out: IC50) | IC50 [10] | Structure (SMILES) | Activity (Homo sapiens [1]) | inhibition (Homo sapiens [2]) | Activity [5] | Activity [6] | inhibition (Homo sapiens [7]) | Activity [11] | Activity [12] | Activity (Homo sapiens [15]) | also measured |
| --- | --- | --- | --- | --- | --- | --- | --- | --- | --- | --- | --- | --- |
| 601 µM | 443 µM | 740 µM | O=C(/C=C/c1ccc(O)c(O)c1)O[C@H]1[C@H](O)C[C@](O)(C(=O)O)C[C@H]1OC(=O)/C=C/c1ccc(O)c(O)c1 | Active | Active | 79.5% | Non-toxic | Active | 56.9% |  |  | Activity [8]: 155%; Activity [9]: 126% |
| 666 µM | 85.9 µM | 902 µM | O=C(/C=C/c1ccc(O)c(O)c1)O[C@@H]1C[C@](O)(C(=O)O)C[C@@H](OC(=O)/C=C/c2ccc(O)c(O)c2)[C@H]1O | Active | Active | 97.5% | Non-toxic | Active | 50.9% | 121.1% |  | Activity [8]: 160.8% |
| 749 µM | 92.5 µM | 80 µM | O=C(/C=C/c1ccc(O)c(O)c1)O[C@@H]1[C@H](O)C[C@@](O)(C(=O)O)C[C@H]1OC(=O)/C=C/c1ccc(O)c(O)c1 | Active | Active |  | Non-toxic | Active |  |  |  |  |
|  |  |  | COc1ccc2c(c1)c(CC(=O)O)c(C)n2C(=O)c1ccc(Cl)cc1 |  |  |  |  |  |  |  |  | inhibition (Homo sapiens [13]): Active; inhibition (Homo sapiens [14]): Active |
| 276 µM | 411 µM |  | O=C(O)/C=C/c1ccc(O)c(O)c1 [CAFFEIC ACID] |  |  |  | Non-toxic |  | 96.5% | 153.7% | Active | inhibition (Homo sapiens [16]): Active; IC50 [4]: Dose-dependent effect; Activity (Homo sapiens [17]): Active; inhibition (Homo sapiens [18]): Active; Activity (Homo sapiens [19]): Active; Activity [20]: 136.7% |
| 918 µM | 548 µM | 796 µM | O=C(O)CC(OC(=O)/C=C/c1ccc(O)c(O)c1)C(=O)O (centres undefined) [CAFFEOYLMALIC ACID] |  | Active |  | Non-toxic | Active | 114.8% | 141.5% | Active | Activity [20]: 106.3% |
| 873 µM | 433 µM |  | O=C(/C=C/c1ccc(O)c(O)c1)OC(C(=O)O)C(O)C(=O)O (centres undefined) [CAFFEOYLTARTARIC ACID] |  | Active |  | Non-toxic | Active | 55% |  | Active | Activity [21]: 57.9% |
|  |  |  | O=C(/C=C/c1ccc(O)c(O)c1)O[C@@H]1C[C@](O)(C(=O)O)C[C@@H](O)[C@H]1O [CHLOROGENIC ACID] |  |  |  | Non-toxic |  |  |  |  |  |
| 214 µM | 55.6 µM | 459 µM | O=C(/C=C/c1ccc(O)c(O)c1)O[C@H](Cc1ccc(O)c(O)c1)C(=O)O [ROSMARINIC ACID] | Active |  | 48% | Non-toxic |  |  |  |  | IC50 [3]: Dose-dependent effect; IC50 [4]: Dose-dependent effect; Activity [9]: 143.4%; inhibition (Homo sapiens [22]): Active; inhibition (Homo sapiens [23]): Active; IC50 [24]: 455 µM |
